In PubChem BioAssay AID330 (DTP/NCI, 2004):
Values joined by “and” are separate entries in the source; they are usually repeats but may differ in a detail not shown here. Equal entries are not always repeated. Inconclusive results and toxic doses are left out. Rule for the calls: active = survival T/C of 150% or more; inactive = T/C below 125% in these data.

System: P388 leukemia ip, CD2F1 mice, survival T/C
Test: NCI In Vivo Anticancer Drug Screen. Data for tumor model P388 Leukemia (intraperitoneal) in CD2F1 (CDF1) mice
Conditions: endpoint: median survival time, higher = longer survival
In short: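 Mice carrying the transplanted tumor received test compound or vehicle. Survival was recorded in each group, and the value is the treated-group measurement divided by that of the vehicle-treated control group.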

[1] = dose: 50.0 mg/kg/injection, schedule: Q01DX005 (ip), vehicle: Klucel (hydroxypropylcellulose) (HPC)
[2] = dose: 50.0 mg/kg/injection, schedule: Q01DX005 (ip), vehicle: saline with Tween-80
[3] = dose: 100.0 mg/kg/injection, schedule: Q01DX005 (ip), vehicle: saline with Tween-80
[4] = dose: 200.0 mg/kg/injection, schedule: Q01DX005 (ip), vehicle: saline with Tween-80
[5] = dose: 100.0 mg/kg/injection, schedule: Q01DX009 (ip), vehicle: saline with Tween-80

Measured: T/C

COC(CCC(C)C1OC23CC(OC(=O)CC(C(C)O)OC(=O)CC(O)(O2)C(C)CC3(C)C)C1C)c1cccc(O)c1 (stereo not drawn)
inactive: dose: 3.12 micrograms/kg/injection, schedule: Q01DX009 (ip), vehicle: saline + Tween-80 + alcohol 101 % of control | dose: 6.25 micrograms/kg/injection, schedule: Q01DX009 (ip), vehicle: saline + Tween-80 + alcohol 107 % of control and 109 % of control and 86 % of control | dose: 12.5 micrograms/kg/injection, schedule: Q01DX009 (ip), vehicle: saline + Tween-80 + alcohol 108 % of control | dose: 25.0 micrograms/kg/injection, schedule: Q01DX009 (ip), vehicle: saline + Tween-80 + alcohol 111 % of control and 117 % of control | dose: 50.0 micrograms/kg/injection, schedule: Q01DX009 (ip), vehicle: saline + Tween-80 + alcohol 115 % of control and 117 % of control

CC(=O)Nc1ccc(Cl)cc1C(O)c1ccccc1 (stereo not drawn)
inactive: dose: 12.5 mg/kg/injection, schedule: Q01DX005 (ip), vehicle: Klucel (hydroxypropylcellulose) (HPC) 89 % of control | dose: 25.0 mg/kg/injection, schedule: Q01DX005 (ip), vehicle: Klucel (hydroxypropylcellulose) (HPC) 91 % of control | [1] 98 % of control and 99 % of control

CCCCCCCCCCCCCCCCCCSc1c(OC)c(OC(C)=O)c(OC)c(OC)c1OC(C)=O
inactive: dose: 4.0 mg/kg/injection, schedule: Q01DX009 (ip), vehicle: Klucel (hydroxypropylcellulose) (HPC) 87 % of control | dose: 8.0 mg/kg/injection, schedule: Q01DX009 (ip), vehicle: Klucel (hydroxypropylcellulose) (HPC) 98 % of control | dose: 16.0 mg/kg/injection, schedule: Q01DX009 (ip), vehicle: Klucel (hydroxypropylcellulose) (HPC) 96 % of control | dose: 32.0 mg/kg/injection, schedule: Q01DX009 (ip), vehicle: Klucel (hydroxypropylcellulose) (HPC) 98 % of control

O=C1c2ccccc2C(=Nc2ccccc2)c2c1c(O)n(-c1ccccc1)c2O
inactive: [1] 97 % of control | dose: 100.0 mg/kg/injection, schedule: Q01DX005 (ip), vehicle: Klucel (hydroxypropylcellulose) (HPC) 91 % of control | dose: 200.0 mg/kg/injection, schedule: Q01DX005 (ip), vehicle: Klucel (hydroxypropylcellulose) (HPC) 96 % of control

CC1=Nc2ccccc2NC2(C1)C(C1COC(C)(C)O1)OC1OC(C)(C)OC12 (stereo not drawn)
inactive: [2] 95 % of control | [3] 99 % of control | [4] 100 % of control

C=C(C)C1CC=C(C)CC1 (stereo not drawn)
inactive: [5] 95 % of control | dose: 100.0 mg/kg/injection, schedule: Q04DX003 (ip), vehicle: saline with Tween-80 100 % of control | dose: 200.0 mg/kg/injection, schedule: Q01DX009 (ip), vehicle: saline with Tween-80 104 % of control | dose: 200.0 mg/kg/injection, schedule: Q04DX003 (ip), vehicle: saline with Tween-80 104 % of control | dose: 400.0 mg/kg/injection, schedule: Q01DX009 (ip), vehicle: saline with Tween-80 114 % of control | dose: 400.0 mg/kg/injection, schedule: Q04DX003 (ip), vehicle: saline with Tween-80 109 % of control

[S-]c1n[n+](-c2ccccc2)no1
inactive: dose: 6.25 mg/kg/injection, schedule: Q01DX009 (ip), vehicle: distilled water + Tween-80 102 % of control | dose: 12.5 mg/kg/injection, schedule: Q01DX009 (ip), vehicle: distilled water + Tween-80 88 % of control

CCCCCCCCCCCCCC[N+]1(CC)CCCCC1
inactive: dose: 0.19 mg/kg/injection, schedule: Q01DX009 (ip), vehicle: saline 113 % of control and 115 % of control | dose: 0.39 mg/kg/injection, schedule: Q01DX009 (ip), vehicle: saline 111 % of control and 113 % of control and 118 % of control | dose: 0.78 mg/kg/injection, schedule: Q01DX009 (ip), vehicle: saline 120 % of control and 94 % of control | dose: 1.56 mg/kg/injection, schedule: Q01DX009 (ip), vehicle: saline 109 % of control | dose: 1.56 mg/kg/injection, schedule: Q04DX003 (ip), vehicle: saline 113 % of control

CSNC(C)=O
inactive: dose: 25.0 mg/kg/injection, schedule: Q01DX009 (ip), vehicle: saline with Tween-80 102 % of control | dose: 50.0 mg/kg/injection, schedule: Q01DX009 (ip), vehicle: saline with Tween-80 109 % of control | [5] 111 % of control

c1cnc2c(OCCOCCOCCOCCOc3cccc4cccnc34)cccc2c1
inactive: [2] 90 % of control | [3] 90 % of control | [4] 98 % of control

C[N+](C)=c1ccc2nc3c(cc(Nc4ccccc4)c4ccccc43)oc-2c1
inactive: dose: 60.0 mg/kg/injection, schedule: Q01DX005 (ip), vehicle: Klucel (hydroxypropylcellulose) (HPC) 88 % of control | dose: 120.0 mg/kg/injection, schedule: Q01DX005 (ip), vehicle: Klucel (hydroxypropylcellulose) (HPC) 91 % of control | dose: 240.0 mg/kg/injection, schedule: Q01DX005 (ip), vehicle: Klucel (hydroxypropylcellulose) (HPC) 103 % of control

CN(CCOC(N)=O)CCOC(N)=O
inactive: dose: 60.0 mg/kg/injection, schedule: Q01DX005 (ip), vehicle: saline with Tween-80 92 % of control | dose: 120.0 mg/kg/injection, schedule: Q01DX005 (ip), vehicle: saline with Tween-80 97 % of control | dose: 240.0 mg/kg/injection, schedule: Q01DX005 (ip), vehicle: saline with Tween-80 95 % of control
